From ChEMBL document CHEMBL1145918, “Synthesis, comparative photosensitizing efficacy, human serum albumin (site II) binding ability, and intracellular localization characteristics of novel benzobacteriochlorins derived from vic-dihydroxybacteriochlorins” (J Med Chem, 2003)

Molecular target: Albumin (Homo sapiens, UniProt P02768)
Test: Compound was tested for its binding ability to site II of Human serum albumin (HSA) expressed as binding constant

Sequence of Albumin (P02768 whole entry): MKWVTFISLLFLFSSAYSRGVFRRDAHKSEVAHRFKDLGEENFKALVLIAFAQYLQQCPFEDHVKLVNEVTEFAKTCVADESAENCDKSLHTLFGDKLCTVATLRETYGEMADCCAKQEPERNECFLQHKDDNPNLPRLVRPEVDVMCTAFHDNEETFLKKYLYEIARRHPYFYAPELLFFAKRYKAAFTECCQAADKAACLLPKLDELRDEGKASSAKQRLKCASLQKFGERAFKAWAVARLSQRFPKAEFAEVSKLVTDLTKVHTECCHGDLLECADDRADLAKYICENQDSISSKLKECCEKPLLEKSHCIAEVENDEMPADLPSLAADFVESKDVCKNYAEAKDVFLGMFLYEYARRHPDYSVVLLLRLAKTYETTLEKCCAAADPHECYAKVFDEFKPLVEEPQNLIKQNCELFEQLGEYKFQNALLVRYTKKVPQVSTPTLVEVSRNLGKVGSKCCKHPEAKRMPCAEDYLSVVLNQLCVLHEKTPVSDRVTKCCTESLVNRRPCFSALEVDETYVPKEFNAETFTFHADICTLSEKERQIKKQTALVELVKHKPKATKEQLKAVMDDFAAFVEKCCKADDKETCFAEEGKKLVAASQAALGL

| K | SMILES |
| --- | --- |
| 14400000 M⁻¹ | CCc1c(C)c2cc3nc(c(C(=O)OC)c4nc(cc5[nH]c(cc1[nH]2)C1(C)C5=CC=C(C(=O)OC)C1C(=O)OC)C(C)=C4C(=O)OC)[C@@H](CCC(=O)OC)[C@@H]3C (stereo not given in full) |
| 16000000 M⁻¹ | CCc1c(C)c2cc3nc(c4c5nc(cc6[nH]c(cc1[nH]2)C1(C)C6=CC=C(C(=O)OC)C1C(=O)OC)C(C)=C5C(=O)N(Cc1cc(C(F)(F)F)cc(C(F)(F)F)c1)C4=O)[C@@H](CCC(=O)OC)[C@@H]3C (stereo not given in full) |
| 16100000 M⁻¹ | CCCCCCN1C(=O)C2=C(C)c3cc4[nH]c(cc5[nH]c(cc6nc(c(c2n3)C1=O)[C@@H](CCC(=O)OC)[C@@H]6C)c(C)c5CC)C1(C)C4=CC=C(C(=O)OC)C1C(=O)OC (stereo not given in full) |
| 10600000 M⁻¹ | CCc1c(C)c2cc3nc(c4c5nc(cc6[nH]c(cc1[nH]2)C1(C)C6=CC=C(C(=O)OC)C1C(=O)OC)C(C)=C5C(=O)C4)[C@@H](CCC(=O)OC)[C@@H]3C (stereo not given in full) |
| 17500000 M⁻¹ | CCc1c(C)c2cc3nc(c(CC(=O)OC)c4nc(cc5[nH]c(cc1[nH]2)C1(C)C5=CC=C(C(=O)OC)C1C(=O)OC)C(C)=C4C(=O)OC)[C@@H](CCC(=O)OC)[C@@H]3C (stereo not given in full) |
